We go through three compounds from US20240325351A1, “METHOD OF ADMINISTRATION” (Cybin UK Ltd., priority 2023, published 2024).

Series [1] concerns patients with moderate-severe Major Depressive Disorder. In words: Safety & Tolerability, same study. The series is classed as in vivo, human. From the text:
(§1) An unblinded study of a single dose of N,N-dimethyltryptamine [DMT] fumarate in patients currently taking a selective serotonin reuptake inhibitor (SSRI) for their depression, but for whom the SSRI is not fully relieving their depression is ongoing (ClinicalTrials.gov Identifier: NCT05553691). The study comprises two groups:
(§2) “Test Cohort”: Patients who are currently on a stable treatment course of SSRIs, which have been ineffective in fully relieving their depression symptoms (SSRI prescribed outside of study). Patients were administered a single dose of DMT fumarate by intravenous infusion; and
(§3) “Control Cohort”: Patients who are not currently taking any pharmacological treatment for their depression (control group). Patients were administered a single dose of DMT fumarate by intravenous infusion.
(§4) DMT fumarate is administered by intravenous infusion on Day 1.
The administration of DMT fumarate was well-tolerated by all patients in both the test and the control cohorts, with no apparent differences between cohorts.

For series [2] the test system is unchanged. In words: STAI-T (State-Trait Anxiety Inventory), same study. Type of series: in vivo, human. The conditions noted are these: for STAI-T score: individual patients, fumarate.
Source text: as §1, §2, §3
(§5) Patients were recruited with moderate-severe Major Depressive Disorder (“MDD”) as defined by a Hamilton Depression Rating Scale (HAM-D) score of ≥14. Efficacy was assessed using the Montgomery-Asberg Depression Rating scale (MADRS) to measure any change in patients' depression symptoms from baseline (Day 0). Additional exploratory endpoints include the Beck Depression Inventory (BDI) to assess patients' self-reported depression, and the State-Trait Anxiety Inventory (STAI-T) to assess patients' self-reported anxiety.
as §4

The test system is the same in series [3]. Put plainly: MADRS in unblinded study of single IV dose of DMT fumarate (NCT05553691). The series is classed as in vivo, human. Particulars: for MADRS score: individual patients; for MADRS score / Remission (MADRS score ≤10) / Response (≥50% reduction in MADRS score from baseline): fumarate.
Source text: as §1, §2, §3, §5, §4

Series [4] has the same test system. Put plainly: BDI-II (Beck Depression Inventory), same study. Particulars: for BDI-II score: individual patients, fumarate. The series is classed as in vivo, human.
Source text: as §1, §2, §3, §5, §4

The test system of series [5] is major depressive disorder. The conditions noted are these: in vivo; cited from earlier work.
The conditions of series [6]: 33 mg; cited from earlier work.
Setting [7] is: Control Cohort, n=5, Day 8 vs Day 0.
Where [8] appears, read: Control Cohort, n=5, Day 15 vs Day 0.
The mark [9] stands for this setting: Control Cohort, n=5, Day 29 vs Day 0.
Where [10] appears, read: Test Cohort (on SSRI), n=12, Day 8.
Setting [11] is: Test Cohort (on SSRI), n=12, Day 8 vs Day 0.
The mark [12] stands for this setting: Test Cohort (on SSRI), n=12, Day 15.
Where [13] appears, read: Test Cohort (on SSRI), n=12, Day 15 vs Day 0.
The mark [14] stands for this setting: Test Cohort (on SSRI), n=12, Day 29.
The mark [15] stands for this setting: Test Cohort (on SSRI), n=12, Day 29 vs Day 0.
The mark [16] stands for this setting: Test Cohort (on stable SSRI), Day 15.
[17] abbreviates: Test Cohort (on stable SSRI), Day 29.

“And” between values parts separate entries of the source, which are not always exact repeats. Equal values may be shown once.

In the case of `CN(C)CCc1c[nH]c2ccccc12.O=C(O)/C=C/C(=O)O` [DMT fumarate, N,N-dimethyltryptamine fumarate], in series [1] (all patients in both test and control cohorts, no apparent differences between cohorts), the Tolerability result is “well-tolerated”. For the same compound, the “Drug-related serious adverse events” value in series [1] (both cohorts) is given as “No drug-related serious adverse events reported”. Besides, the “Resolution of drug-related AEs” value in series [1] (both cohorts) is “majority of drug-related AEs were resolved during the dosing visit”. The “Severity of drug-related AEs” value in series [1] (both cohorts) is “mild or moderate”. The entries for the “Number of drug-related adverse events (AEs)” value in series [1] (control cohort) and in series [1] (test cohort (on SSRI)) were 3 and 8, respectively. Besides, the STAI-T score in series [2] (Control Cohort, Day 8) is 60 and 40 and 44 and 50 and 38; in series [2] (Control Cohort, Day 15) it was 58 and 46 and 39 and 52 and 41; in series [2] (Control Cohort, Day 29) it was 51 and 49 and 47 and 59 and 32; in series [2] (Test Cohort (on stable SSRI), Day 8), 47 and 40 (2×) and 66 and 49 and 34 (2×) and 26 and 46 and 28 and 29 and 38; in series [2] (setting [16]), 44 and 30 and 62 and 45 and 33 (2×) and 40 (2×) and 42 and 25 and 22 and 32; in series [2] (setting [17]), 45 and 34 (2×) and 41 and 43 and 28 and 40 and 32 (2×) and 44 and 26 and 23. Moreover, the “STAI-T Mean” value was 46.4 in series [2] (Control Cohort, n=5, Day 8); 47.2 in series [2] (Control Cohort, n=5, Day 15); 47.6 in series [2] (Control Cohort, n=5, Day 29); 39.8 in series [2] (setting [10]); 37.3 in series [2] (setting [12]); 35.2 in series [2] (setting [14]). Further, the “STAI-T Mean % change from Baseline” value is listed as −28.9% in series [2] (setting [7]); −27.6% in series [2] (setting [8]); −27.2% in series [2] (setting [9]); −33.6% in series [2] (setting [11]); −37.5% in series [2] (setting [13]); −41.0% in series [2] (setting [15]). For the same compound, the MADRS score was 7 and 21 (2×) and 24 and 9 in series [3] (Control Cohort (no pharmacological treatment), Day 8); 8 and 18 and 21 and 26 and 7 in series [3] (Control Cohort (no pharmacological treatment), Day 15); 17 and 18 and 15 and 30 and 0 in series [3] (Control Cohort (no pharmacological treatment), Day 29); 1 (3×) and 0 (2×) and 27 and 21 and 10 and 7 and 2 (2×) and 8 in series [3] (Test Cohort (on stable SSRI), Day 8, single IV infusion Day 1); 1 and 0 (4×) and 27 and 15 and 8 and 3 and 5 and 4 and 9 in series [3] (setting [16]); 11 and 0 and 8 and 1 and 6 and 7 and 2 in series [3] (setting [17]). Also, the “MADRS Mean” value in series [3] (Control Cohort, n=5, Day 8) was found to be 16.4; in series [3] (Control Cohort, n=5, Day 15), 16.0; in series [3] (Control Cohort, n=5, Day 29) it was 16.0; in series [3] (setting [10]) it was 6.7; in series [3] (setting [12]) it was 6.0; in series [3] (setting [14]) it was 3.0. For the same compound, the “MADRS Mean % change from Baseline” value in series [3] (setting [7]) is reported as −53.1%; in series [3] (setting [8]), −54.2%; in series [3] (setting [9]), −54.8%; in series [3] (setting [11]), −78.1%; in series [3] (setting [13]) it was −81.2%; in series [3] (setting [15]), −90.2%. Also, the “Number of participants in remission (MADRS ≤10)” value is recorded as “One” in series [3] (Control Cohort, n=5, Day 29); 11 participants in series [3] (setting [14]); 10 participants in series [3] (Test Cohort (on SSRI), n=12, all other time points (Day 8, Day 15)). Moreover, the “Remission (MADRS score ≤10)” value in series [3] (Control Cohort, n=5, Day 29) is on record as 20%; in series [3] (setting [14]) it was 92%. Besides, the “Response (≥50% reduction in MADRS score from baseline)” value in series [3] (Control Cohort, n=5, Day 29) is given as 80%; in series [3] (setting [14]), 100%. In addition, the BDI-II score was 20 and 17 (2×) and 22 and 8 in series [4] (Control Cohort, Day 15); 12 and 13 and 16 and 31 and 2 in series [4] (Control Cohort, Day 29); 0 (3×) and 3 (2×) and 29 and 6 and 5 (2×) and 1 (2×) and 8 in series [4] (setting [16]); 0 (5×) and 4 and 11 and 7 (2×) and 1 and 2 and 5 in series [4] (setting [17]). The “BDI-II Mean” value turned out to be 16.8 in series [4] (Control Cohort, n=5, Day 15); 14.8 in series [4] (Control Cohort, n=5, Day 29); 5.1 in series [4] (setting [12]); 3.1 in series [4] (setting [14]). Also, the “BDI-II Mean % change from Baseline” value in series [4] (setting [8]) is −54%; in series [4] (setting [9]) it was −59%; in series [4] (setting [13]), −84%; in series [4] (setting [15]), −88%.
In the case of `CN(C)CCc1c[nH]c2ccccc12` [N,N-dimethyltryptamine, 2-(1H-indol-3-yl)-N,N-dimethylethanamine], the “Durability of antidepressant effect” value in series [5] is reported as “three months or more”.
With `CC(C)N(CCc1c[nH]c2cccc(OC(=O)CCCC(=O)O)c12)C(C)C` [iprocin-4-glutarate, N,N diisopropyltryptamine-4-glutarate], in series [6], the “Mean duration of the subjective experience” value was 3.7 h.
